Experimental data reported in the NIST ThermoML archive (doi:10.1016/j.jct.2009.02.002).

Experiment: xn = mol fraction of the nth substance listed
Conditions: 101 kPa, Liquid; for viscosity: Capillary tube (Ostwald / Ubbelohde) method; for mass density: Vibrating tube method; for speed of sound: automatically measured using an Anton Paar DSA 5000 instrument

CCCCCCCCCCCCCCCC [hexadecane] + CC(C)CO
Conditions | mass density, 298.15 K [kg/m3] | mass density, 303.15 K [kg/m3] | mass density, 308.15 K [kg/m3] | speed of sound, 298.15 K [m/s] | speed of sound, 303.15 K [m/s] | speed of sound, 308.15 K [m/s] | viscosity, 298.15 K [mPa·s] | viscosity, 303.15 K [mPa·s] | viscosity, 308.15 K [mPa·s]
x2 = 0.0505 | 770.506 | 766.982 | 763.479 | 1333.6 | 1314.5 | 1296.1 | 2.807 | 2.494 | 2.233
x2 = 0.108 | 770.704 | 767.145 | 763.586 | 1328.2 | 1309.5 | 1291.1 | 2.658 | 2.345 | 2.102
x2 = 0.1539 | 770.945 | 767.37 | 763.784 | 1324.2 | 1305.5 | 1287 | 2.601 | 2.277 | 2.023
x2 = 0.2202 | 771.403 | 767.797 | 764.189 | 1318.4 | 1299.8 | 1281.3 | 2.576 | 2.246 | 1.975
x2 = 0.2709 | 771.834 | 768.215 | 764.58 | 1313.8 | 1295.1 | 1276.6 | 2.596 | 2.235 | 1.952
x2 = 0.3389 | 772.519 | 768.878 | 765.22 | 1307.3 | 1288.7 | 1270.2 | 2.638 | 2.252 | 1.946
x2 = 0.4112 | 773.437 | 769.755 | 766.075 | 1299.9 | 1281.3 | 1262.8 | 2.672 | 2.292 | 1.967
x2 = 0.5043 | 774.946 | 771.22 | 767.482 | 1289.8 | 1271.2 | 1252.8 | 2.694 | 2.296 | 1.985
x2 = 0.5989 | 776.918 | 773.158 | 769.37 | 1277.8 | 1259.3 | 1241 | 2.676 | 2.295 | 1.998
x2 = 0.6938 | 779.505 | 775.707 | 771.873 | 1263.6 | 1245.3 | 1227.4 | 2.643 | 2.274 | 1.984
x2 = 0.8115 | 783.946 | 780.177 | 776.274 | 1241.5 | 1223.8 | 1206.2 | 2.673 | 2.28 | 2
x2 = 0.8638 | 786.74 | 782.888 | 778.972 | 1229.5 | 1211.9 | 1194.4 | 2.756 | 2.322 | 2.009
x2 = 0.9037 | 789.326 | 785.457 | 781.543 | 1219 | 1201.6 | 1184.3 | 2.874 | 2.379 | 2.046
x2 = 0.938 | 792.003 | 788.12 | 784.196 | 1209.3 | 1192.2 | 1175.2 | 3.023 | 2.469 | 2.082
